Source: BindingDB's records for doi:10.7270/Q29S1T6B (n/a, 1997)

Molecular target: T1, Type-1 angiotensin II receptor B (Rattus norvegicus, UniProt P29089)
T1 sequence (P29089 whole entry): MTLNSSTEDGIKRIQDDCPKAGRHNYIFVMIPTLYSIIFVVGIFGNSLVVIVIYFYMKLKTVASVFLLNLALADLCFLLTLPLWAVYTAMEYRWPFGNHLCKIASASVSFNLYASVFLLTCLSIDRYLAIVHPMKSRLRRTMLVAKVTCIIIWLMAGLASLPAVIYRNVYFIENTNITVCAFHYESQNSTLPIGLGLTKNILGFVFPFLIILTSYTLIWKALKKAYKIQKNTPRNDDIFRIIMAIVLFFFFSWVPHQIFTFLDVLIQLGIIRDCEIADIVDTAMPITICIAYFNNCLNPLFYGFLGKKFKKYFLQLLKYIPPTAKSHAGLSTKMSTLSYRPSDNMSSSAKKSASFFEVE
Test: Inhibition of binding of [125I]All at the angiotensin II type 1 receptor (AT1 receptor) in rat liver membranes

Row | Ki [nM] | SMILES
1 | 36 | CCc1nn(Cc2ccc(-c3ccccc3-c3nnn[nH]3)cc2)c(=NC(=O)c2ccccc2)s1 [N-[5-Ethyl-3-[2'-(1H-tetrazol-5-yl)-biphenyl-4-ylmethyl]-3H-[1,3,4]thiadiazol-(2Z)-ylidene]-benzamide]
2 | 3.4 | CCc1nn(Cc2ccc(-c3ccccc3-c3nnn[nH]3)cc2)c(=NC(=O)c2ccccc2Cl)s1 [2-Chloro-N-[5-ethyl-3-[2'-(1H-tetrazol-5-yl)-biphenyl-4-ylmethyl]-3H-[1,3,4]thiadiazol-(2Z)-ylidene]-benzamide]
3 | 0.619 | CCc1nn(Cc2ccc(-c3ccccc3-c3nnn[nH]3)cc2)c(=NC(=O)c2ccccc2C(=O)O)s1 [N-[5-Ethyl-3-[2'-(1H-tetrazol-5-yl)-biphenyl-4-ylmethyl]-3H-[1,3,4]thiadiazol-(2Z)-ylidene]-phthalamic acid]
